Assay: CEST MR phantom imaging on 4.7 T scanner
Settings: 4 mM complex, pH 7.4-7.5, 37° C.; for % CEST: 20 mM HEPES, 100 mM NaCl, 4.7 T MRI scanner
Method: CEST MR images were acquired at 4.7 Tesla preclinical MR scanner using a 35 mm transceiver coil (ParaVision 3.0.2, Bruker Biospin, Billerica, Mass.) as detailed elsewhere. Two spoiled gradient-echo images (TE/TR=2.1/5010 ms, flip angle=90 deg) were acquired at 37° C. after employing a pulse train comprised of five Gauss pulses ([…] for 1 second each, interpulse delay of 200 μs) applied symmetrically about the bulk water resonance.
Image processing was carried out using in-house software algorithms developed in MATLAB (MathWorks, Natick, Mass.). Each image was normalized to the mean intensity of the buffer/salt phantom, and the mean signal intensity of each compound was sampled. The percent change in signal, or CEST effect (CE), was calculated as: CE=(1−SIon/SIoff)*100%, where SIon and SIoff represent the mean signal intensity of each sample with the pre-saturation pulse applied on- and off-resonance of the exchangeable protons, respectively. CEST images (FIGS. 14, 15) were calculated by determining CE on a pixel-by-pixel basis in MATLAB. To improve visualization of the CEST effect, images were filtered with a spatial averaging filter (kernel size=5×5), background noise was removed using a binary mask of the samples, and a ‘hotiron’ color lookup table was applied. […] Imaging parameters for the FID-FISP acquisition include: matrix=128×128, field of view=3.2×3.2 cm, TE/TR=1.5/3.0 ms, flip angle=90, number of repetitions=20. Processing was carried out as above with the exception that the 20 repetition image datasets were averaged together prior to normalization by the buffer signal intensity. The experiment was repeated with three separate preparations of [Co(CCRM)]^2+.
CEST images were acquired on a 4.7 Tesla preclinical MR scanner using a 35 mm radiofrequency coil and the ParaVision 3.0.2 research platform (Bruker Biospin, Billerica, Mass.). A pair of gradient-echo MR images were acquired at either 37° C. with a pre-saturation pulse train comprised of five 1 second Gauss pulses (12 μT, 200 μs interpulse delay) applied symmetrically about the bulk water resonance (+/−135 ppm). Other pertinent acquisition parameters include: echo time/repetition time=2.1/5010 ms, flip angle=90 deg, acquisition matrix=160×160, slice thickness=2 mm, field of view=32×32 mm, averages=1.
To determine the CEST effect, each image was normalized to the signal intensity of the buffer and salt-only phantom and the normalized image intensity of each phantom was sampled using commercially available software (Analyze 7.0, AnalyzeDirect Inc., Overland Park, Kans.). The percent loss of signal due to […] exchange was calculated using the following equation: % CEST=1−SIon/SIoff, eq. 9 where SIon and SIoff are the image intensities of each sample acquired with on-resonance and off-resonance pre-saturation pulses, respectively. To create the CEST image (FIG. 46), raw k-space data was zero-filled to a 512×512 matrix, reconstructed to spatial domain, filtered with a spatial low-pass filter (kernel size: 11×11) to improve signal-to-noise, and then normalized by image intensity of the buffer and salt-only phantom. The % CEST effect was calculated pixel-by-pixel using the normalized on/off resonance image pair in MATLAB (MathWorks, Natick, Mass.). Phantoms in the CEST image were isolated using binary masking techniques, and a “hot-iron” pseudocolor lookup table was applied to enhance perceptual contrast between samples.

Row | Compound | % CEST | % CEST, peak at 95 ppm (peak at 95 ppm, 4.7 T) | % CEST, peak at 112 ppm (peak at 112 ppm, 4.7 T)
1 | NC(=O)CN1CCN(CC(N)=O)CCN(CC(N)=O)CC1.[Co+2] [[Co(TCMT)]^2+] | 8% | – | –
2 | NC(=O)CN1CCOCCOCCN(CC(N)=O)CCOCC1.[Co+2] [[Co(NOPE)]^2+] | 12% | – | –
3 | NC(=O)CN1CCCN(CC(N)=O)CCN(CC(N)=O)CCCN(CC(N)=O)CC1.[Co+2] [[Co(CCRM)]^2+] | – | 5% | 8%
4 | NC(=O)CN1CCN(CC(N)=O)CCN(CC(N)=O)CCN(CC(N)=O)CC1.[Co+2] [[Co(TCMC)]^2+] | 12% | – | –

From US10960088B2, “Macrocycles, cobalt and iron complexes of same, and methods of making and using same” (The Research Foundation for The State University of New York, priority 2013, dated 2021)
